Measured values taken from patent US20240368150A1 (Hoffmann-La Roche Inc., priority 2021, published 2024).
Read-outs that look alike come from different tables or passages of the source.

How the values were obtained:
primary human T-cells [1] = experiment: Proliferation assay after 5 days (CellTiter-Glo, CD3 stimulation; PBS counter screen); type: cell-based; details: Homo sapiens, T-cell, 120 h, CD3 stimulation; for Emax: 5 days, normalized to reference compound A1 as stimulator control = 100%, DMSO neutral control, read-out: Emax proliferation (% activation); for EC50: primary human T-cells, CellTiter-Glo after 5 days, EC50 of fitted sigmoidal curve, read-out: Tcell Proliferation CD3 EC50
Summary of the method: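 Proliferation is measured 5 days post-treatment as ATP-dependent luminescence. Flags mark compounds that activated unstimulated cells or harmed viability.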

primary human T-cells [2] = test system: primary human T-cells

| Structure (SMILES) | EC50 (primary human T-cells [2]) | Emax (primary human T-cells [1]) | EC50 (primary human T-cells [1]) |
| --- | --- | --- | --- |
| CN(C)CCCC(C)(C)c1nnc(-c2cc3c(cc2F)S(=O)(=O)C[C@H](N)C(=O)N3Cc2ccc(Cl)cc2)o1 [Example 143, (3R)-3-amino-5-[(4-chlorophenyl)methyl]-7-[5-[4-(dimethylamino)-1,1-dimethyl-butyl]-1,3,4-oxadiazol-2-yl]-8-fluoro-1,1-dioxo-2,3-dihydro-1λ^6,5-benzothiazepin-4-one] | 1270 nM | 77% | 2390 nM |
| CN1CCC(c2nnc(-c3cc4c(cc3F)S(=O)(=O)C[C@H](N)C(=O)N4Cc3ccc(Cl)cc3)o2)C1 (stereo partly drawn) [Example 144, (3R)-3-amino-5-[(4-chlorophenyl)methyl]-8-fluoro-7-[5-(1-methylpyrrolidin-3-yl)-1,3,4-oxadiazol-2-yl]-1,1-dioxo-2,3-dihydro-1λ^6,5-benzothiazepin-4-one] | 1820 nM | 106% | 6150 nM |
| CN1CCCC(C)(c2nnc(-c3cc4c(cc3F)S(=O)(=O)C[C@H](N)C(=O)N4Cc3ccc(Cl)cc3)o2)C1 (stereo partly drawn) [Example 145, (3R)-3-amino-5-[(4-chlorophenyl)methyl]-7-[5-(1,3-dimethyl-3-piperidyl)-1,3,4-oxadiazol-2-yl]-8-fluoro-1,1-dioxo-2,3-dihydro-1λ^6,5-benzothiazepin-4-one] | 404 nM | 107% | 428 nM |
| CC(C)(CCCN)c1nnc(-c2cc3c(cc2F)S(=O)(=O)C[C@H](N)C(=O)N3Cc2ccc(Cl)cc2)o1 [Example 149, (3R)-3-amino-7-[5-(4-amino-1,1-dimethyl-butyl)-1,3,4-oxadiazol-2-yl]-5-[(4-chlorophenyl)methyl]-8-fluoro-1,1-dioxo-2,3-dihydro-1λ^6,5-benzothiazepin-4-one] | 4230 nM | 57% | 2560 nM |

The next lines start with results.

| EC50 (primary human T-cells [2]) | Structure (SMILES) | Emax (primary human T-cells [1]) | EC50 (primary human T-cells [1]) |
| --- | --- | --- | --- |
| 255 nM | CC(C)(CN1CCCCC1)c1nnc(-c2cc3c(cc2F)S(=O)(=O)C[C@H](N)C(=O)N3Cc2ccc(Cl)cc2)o1 [Example 141, (3R)-3-amino-5-[(4-chlorophenyl)methyl]-7-[5-[1,1-dimethyl-2-(1-piperidyl)ethyl]-1,3,4-oxadiazol-2-yl]-8-fluoro-1,1-dioxo-2,3-dihydro-1λ^6,5-benzothiazepin-4-one] | 91% | 768 nM |
| 224 nM | CC(C)(CN1CCC(F)(F)CC1)c1nnc(-c2cc3c(cc2F)S(=O)(=O)C[C@H](N)C(=O)N3Cc2ccc(Cl)cc2)o1 [Example 142, (3R)-3-amino-5-[(4-chlorophenyl)methyl]-7-[5-[2-(4,4-difluoro-1-piperidyl)-1,1-dimethyl-ethyl]-1,3,4-oxadiazol-2-yl]-8-fluoro-1,1-dioxo-2,3-dihydro-1λ^6,5-benzothiazepin-4-one] | 66% | 138 nM |
| 260 nM | CN(C)CC(C)(C)c1nnc(-c2cc3c(cc2F)S(=O)(=O)C[C@H](N)C(=O)N3Cc2ccc(Cl)cc2)o1 [Example 146, (3R)-3-amino-5-[(4-chlorophenyl)methyl]-7-[5-[2-(dimethylamino)-1,1-dimethyl-ethyl]-1,3,4-oxadiazol-2-yl]-8-fluoro-1,1-dioxo-2,3-dihydro-1λ^6,5-benzothiazepin-4-one] | 90% | 189 nM |
| 348 nM | CC(C)(CN1CCOCC1)c1nnc(-c2cc3c(cc2F)S(=O)(=O)C[C@H](N)C(=O)N3Cc2ccc(Cl)cc2)o1 [Example 147, (3R)-3-amino-5-[(4-chlorophenyl)methyl]-7-[5-(1,1-dimethyl-2-morpholino-ethyl)-1,3,4-oxadiazol-2-yl]-8-fluoro-1,1-dioxo-2,3-dihydro-1λ^6,5-benzothiazepin-4-one] | 117% | 343 nM |
| 988 nM | CN1CCN(CC(C)(C)c2nnc(-c3cc4c(cc3F)S(=O)(=O)C[C@H](N)C(=O)N4Cc3ccc(Cl)cc3)o2)CC1 [Example 148, (3R)-3-amino-5-[(4-chlorophenyl)methyl]-7-[5-[1,1-dimethyl-2-(4-methylpiperazin-1-yl)ethyl]-1,3,4-oxadiazol-2-yl]-8-fluoro-1,1-dioxo-2,3-dihydro-1λ^6,5-benzothiazepin-4-one] | 48% | > 10000 nM |
